Assay results reported in patent US9119874B2, “Cell-penetrating markers of apoptosis” (TRUSTEES OF BOSTON COLLEGE, priority 2012, dated 2015).

System: Jurkat cells
Test: Confocal microscopy of stained Jurkat cells with and without CPT treatment
Type: cell-based
Source text: FIGS. 5A-5D are confocal microscopy images of F1-EA staining Jurkat cell samples without the washing step. FIGS. 5A and 5C display the FITC channel; FIGS. 5B and 5D display the phase contrast channel.
FIGS. 6A-6D are micrographs depicting representative confocal images.
FIGS. 8A-8D are a series of micrographs depicting confocal microscopy images of Rhodamine B and Rd-EA staining Jurkat cell samples. FIGS. 8A and 8B show Rhodamine B stained cells while FIGS. 8C and 8D show Rd-EA stained cells. FIGS. 8A and 8C are CPT treated cells while
The specificity of F1-EA for apoptotic cells were further validated through a costaining experiment with the R-phycoerythrin labeled annexin V (AV-PE, yellow emission). […] The flow cytometry result was further validated with confocal microscopy analysis.

Molecule | selectivity of staining for apoptotic cells (confocal images, CPT-treated vs untreated Jurkat cells) | location of the stain in CPT-treated cells (confocal image, CPT-treated Jurkat cells)
CCN(CC)c1ccc2c(-c3ccccc3C(=O)O)c3ccc(=[N+](CC)CC)cc-3oc2c1.[Cl-] [Rhodamine B] | no selectivity | 
AV-PE: R-phycoerythrin labeled annexin V (protein, UniProt P08758 2-320, looked up, R-phycoerythrin label, R-phycoerythrin labeled annexin V) Annexin A5: AQVLRGTVTDFPGFDERADAETLRKAMKGLGTDEESILTLLTSRSNAQRQEISAAFKTLFGRDLLDDLKSELTGKFEKLIVALMKPSRLYDAYELKHALKGAGTNEKVLTEIIASRTPEELRAIKQVYEEEYGSSLEDDVVGDTSGYYQRMLVVLLQANRDPDAGIDEAQVEQDAQALFQAGELKWGTDEEKFITIFGTRSVSHLRKVFDKYMTISGFQIEETIDRETSGNLEQLLLAVVKSIRSIPAYLAETLYYAMKGAGTDDHTLIRVMVSRSEIDLFNIRKEFRKNFATSLYSMIKGDTSGDYKKALLLLCGEDD |  | membrane location
